Source: patent US20080103209A1, “Compounds And Methods For Treating Non-Inflammatory Pain Using Ppar Alpha Agonists” (The Regents of The University of California, priority 2004, published 2008)

Columns and labels:
mice = assay: TPA-induced ear edema (irritant contact dermatitis); format: in vivo, mouse
Source text: In addition to rapid-onset analgesia, PEA also exerts prolonged anti-inflammatory effects [Benvenuti, et al., Boll Soc It Biol Sper 44, 809-813 (1968); Lambert, et al., Curr Med. Chem. 9, 663-74 (2002)], which are associated with the down-regulation of pro-inflammatory proteins such as nitric oxide synthase (NOS) [Costa, et al., Br J Pharmacol 137, 413-20. (2002)]. Two models of acute inflammation were used to examine whether such effects are mediated through PPARα. First, paw edema was induced in C57B16J wild-type and PPARα^−/− mice by local injection of the irritant, carrageenan [Cirino, et al., Eur J Pharmacol 166, 505-10 (1989)]. […] Next, ear edema was produced in CD1 mice by topical administration of the phorbol ester, 12-O-tetradecanoylphorbol-13-acetate (TPA) [Sheu, et al., J Invest Dermatol., 94-101. (2002)]. […] In a parallel set of experiments, the effects of PEA (20 μg) on TPA-induced edema were tested in C57B16J wild-type and PPARα^−/− mice. […] Together, these findings indicate that PEA reduces acute nociception and inflammation through activation of PPARα.
As previous described procedure [Sheu, et al., J Invest Dermatol., 94-101. (2002)], 12-O-tetradecanoylphorbol-13-acetate (TPA) was dissolved in acetone (0.03%, w v^−1) and topically delivered with a pipette to the inner and outer surfaces (10 μl/side) of mice ears. Experimental agents were dissolved in acetone and delivered topically (20 μl/side) 45 minutes and 4 hours after TPA. 18 hours after TPA administration, the mice were euthanized with CO2 and the ears punched (diameter=2 mm) four times. The 4 excised punches of skin were combined and weighed to assess edema.

C57BL6/J mice = assay: TPA-induced edema of abdominal skin, topical administration; format: in vivo, mouse; details: PEA 450 μg, GW7647 755 μg
PPARα mRNA = PPARα mRNA expression in inflamed mouse skin; format: in vivo; details: topical to inflamed abdominal skin; PEA 450 μg, GW7647 755 μg
Swiss mice [1] = assay: Sciatic nerve ligation neuropathy, mechanical and thermal hyperalgesia; format: in vivo, mouse; details: for mechanical and thermal pain thresholds in the non-ligated paw of neuropathic mice: data not shown; for neuropathic hypersensitivity (mechanical and thermal pain thresholds), ligated limb: single s.c. dose day 7 and 14 after surgery, 60 min before test, PEA, GW7647 30 mg-kg^−1, gabapentin 60 mg-kg^−1
Protocol: To examine whether PPARα agonists modulate the persistent pain hypersensitivity associated with nerve injury, peripheral neuropathy was produced in mice by partially ligating the left sciatic nerve, a surgical procedure that results in the development of mechanical and thermal hyperalgesia in the operated limb (Bennett et al., Pain, 33, 87 (1988)).
Sciatic nerve ligation was performed essentially following the method of Bennett and Xie (Bennett et al., Pain 33, 87 (1988)). Briefly, male Swiss mice were anesthetized with sodium pentobarbital, the left sciatic nerve was exposed at mid-thigh level through a small incision and one-third to one-half of the nerve thickness was tightly ligated with a silk thread. The wound was closed with a single muscle suture and skin clips, and dusted with streptomycin powder. In sham-operated animals, the nerve was exposed but not ligated.
(§1) Mechanical hyperalgesia was determined by measuring paw withdrawal thresholds to an increasing pressure onto the dorsal surface of the paw using an analgesimeter (Ugo Basile, Italy) with a cut-off of 250 g. Withdrawal thresholds were measured on both the ipsilateral paw (inflamed or ligated) and contralateral paw (uninflamed or unligated) 60 min after subcutaneous drug administration.
Thermal hyperalgesia was assessed by the methods of Hargreaves (Hargreaves et al., Pain, 32, 77 (1988)) by measuring the latency to withdraw the hind paws from a focussed beam of radiant heat applied to the plantar surface, using an appropriate apparatus (Ugo Basile, Italy). The cut-off time was set at 30 sec. The mice were habituated to the apparatus for 10-15 min two days prior to the experiment.

Swiss mice [2] = assay: Prolonged carrageenan-induced paw oedema, hyperalgesia and oedema; format: in vivo, mouse; details: 30 mg-kg^−1 s.c. on the third day of carrageenan treatment
Source text: The ability of PPARα agonists to attenuate hyperalgesia was further explored in two mouse models of subchronic inflammation: (i) experimental arthritis elicited by intradermal injection of complete Freund's adjuvant (CFA) into the base of the tail (Whiteley et al., Current Protocols in Pharmacology, 2, 5.5.1-5.5.5. (2001)); and (ii) prolonged oedema induced by repeated carrageenan injections into the paw (Otterness et al., Methods Enzymol, 162, 320 (1988)). […] Both drugs, but not their vehicle, suppressed mechanical (FIG. 7A, 7B) and thermal (data not shown) sensitivity.
Carrageenan-induced paw oedema. An inflammatory response was initiated in the left hindpaw of male Swiss mice by injecting %-carrageenan (1% weight-vol^−1 in sterile saline, 50 μl) using a 27-gauge needle, and maintained it by repeating the injections on day 3, 7 and 14 after the first administration. Paw oedema was measured using a mouse plethysmometer (Ugo Basile, Italy) or by weighing the excised paw.
as §1

[3] = topical co-application, CD1 mice

Row | Structure (SMILES) | anti-inflammatory activity on TPA-induced edema in PPARα−/− mice (mice; PPARα−/− mice) | TPA-induced ear edema formation (mice; [3]) | TPA-induced edema of abdominal skin (C57BL6/J mice) | PPARα mRNA expression (PPARα mRNA) | mechanical and thermal pain thresholds in the non-ligated paw of neuropathic mice (Swiss mice [1]) | neuropathic hypersensitivity (mechanical and thermal pain thresholds), ligated limb (Swiss mice [1]) | mechanical sensitivity thresholds, carrageenan (Swiss mice [2]) | paw oedema, carrageenan (Swiss mice [2]) | TPA-induced edema in wild-type and PPARα−/− mice (mice; PEA 20 μg, C57Bl6J wild-type and PPARα−/− mice) | ED50, TPA-induced ear edema (mice; topical co-application, CD1 mice, n=5) | mechanical sensitivity thresholds after repeated dosing, vs vehicle-treated mice (Swiss mice [1]; 30 mg-kg^−1 s.c. once a day for 14 consecutive days from surgery) | dose dependence of antihyperalgesic response (mechanical withdrawal, day 14) (Swiss mice [1]; s.c.)
1 | CC(C)(Sc1ccc(CCN(CCCCC2CCCCC2)C(=O)NC2CCCCC2)cc1)C(=O)O [GW7647] | residual, albeit weak anti-inflammatory activity | attenuated | attenuated TPA-induced edema | increase in PPARα mRNA expression | did not affect | mimicked | normalized mechanical sensitivity thresholds | no effect | – | – | – | –
2 | CCCCCCCCCCCCCCCC(=O)NCCO [PEA, palmitoylethanolamide] | – | attenuated | attenuated TPA-induced edema | increase in PPARα mRNA expression | did not affect | reversal of neuropathic hypersensitivity | normalized mechanical sensitivity thresholds | no effect | effective only in wild-type animals | 8.9 μg per ear | significantly higher | dose-dependent
